# Measurements: patent US20260216170A1, “TETRAHYDROISOQUINOLINE HETEROBIFUNCTIONAL BCL-XL DEGRADERS” (Treeline Biosciences, Inc., priority 2023, published 2026)
# Target: T1, Human BCL-XL protein (N-terminal HiBiT tagged BCL-XL expressed in HT1080 cells) (Homo sapiens, UniProt Q07817)
# T1 construct: expressed in transfected cells; host or cells: HT-1080 (ATCC CCL-121), stably transduced with lentivirus pLV-UBC-N-HiBiT-BCL-XL-PGK-puro and selected with puromycin
# Assay: HiBiT Based Degradation Assay
# Format: cell-based
# Details: 24 hours incubation; for DC50: BCL-XL degradation, HT1080 cells expressing N-HiBiT-BCL-XL, normalized with DMSO control, geometric mean for multiple data points, read-out: EC50 (24 h); for Ymin (24 h): bottom of BCL-XL degradation curve (remaining HiBiT-BCL-XL signal vs DMSO control), HT1080 cells
# Outline: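 BCL-XL degradation was read as Nano-Glo HiBiT lytic luminescence relative to DMSO after a 24 h compound treatment of HT1080 cells carrying stably integrated N-HiBiT-BCL-XL. EC50 values come from four-parameter logistic curves, with the hook-curve minimum fixed as bottom, and are geometric means where tested repeatedly.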
# T1 sequence (Q07817 whole entry): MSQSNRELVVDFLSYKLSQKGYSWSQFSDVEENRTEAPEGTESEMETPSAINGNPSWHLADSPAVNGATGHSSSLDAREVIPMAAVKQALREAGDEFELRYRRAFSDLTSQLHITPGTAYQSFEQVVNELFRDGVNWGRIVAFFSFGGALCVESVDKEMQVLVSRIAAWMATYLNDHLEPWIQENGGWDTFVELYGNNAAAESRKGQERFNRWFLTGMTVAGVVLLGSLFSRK
SMILES,DC50 [nM],Ymin (24 h)
"Cc1c(OC2CC3(CCN(CC(=O)Nc4ccc5c(C6CCC(=O)NC6=O)nn(C)c5c4)CC3)C2)cccc1-c1ccc(N2CCc3ccnc(C(=O)Nc4nc5ccccc5s4)c3C2)nc1C(=O)O (stereo not shown) [Compound 163, 6-[8-(1,3-benzothiazol-2-ylcarbamoyl)-3,4-dihydro-1H-2,7-naphthyridin-2-yl]-3-[3-[[7-[2-[[3-(2,6-dioxo-3-piperidyl)-1-methyl-indazol-6-yl]amino]-2-oxo-ethyl]-7-azaspiro[3.5]nonan-2-yl]oxy]-2-methyl-phenyl]pyridine-2-carboxylic acid]",< 10,B (30% ≤ Ymin < 50%)
"Cn1nc(C2CCC(=O)NC2=O)c2ccc(NC(=O)CN3CCC(CCCOc4cccc(-c5ccc(N6CCc7ccnc(C(=O)Nc8nc9ccccc9s8)c7C6)nc5C(=O)O)c4C(F)(F)F)CC3)cc21 (stereo not shown) [Compound 159, 6-[8-(1,3-benzothiazol-2-ylcarbamoyl)-3,4-dihydro-1H-2,7-naphthyridin-2-yl]-3-[3-[3-[1-[2-[[3-(2,6-dioxo-3-piperidyl)-1-methyl-indazol-6-yl]amino]-2-oxo-ethyl]-4-piperidyl]propoxy]-2-(trifluoromethyl)phenyl]pyridine-2-carboxylic acid]",10 to 100,B (30% ≤ Ymin < 50%)
"COc1c(NC(=O)CN2CCC3(CC2)CC(Oc2ccc(-c4ccc(N5CCc6ccnc(C(=O)Nc7nc8ccccc8s7)c6C5)nc4C(=O)O)c(C(F)(F)F)c2)C3)ccc2c(C3CCC(=O)NC3=O)nn(C)c12 (stereo not shown) [Compound 171, 6-(8-(benzo[d]thiazol-2-ylcarbamoyl)-3,4-dihydro-2,7-naphthyridin-2(1H)-yl)-3-(4-((7-(2-((3-(2,6-dioxopiperidin-3-yl)-7-methoxy-1-methyl-1H-indazol-6-yl)amino)-2-oxoethyl)-7-azaspiro[3.5]nonan-2-yl)oxy)-2-(trifluoromethyl)phenyl)picolinic acid]",10 to 100,B (30% ≤ Ymin < 50%)
"Cc1cc(OCC2CC3(CCN(CC(=O)Nc4ccc5c(C6CCC(=O)NC6=O)nn(C)c5c4C)CC3)C2)ccc1-c1ccc(N2CCc3cccc(C(=O)Nc4nc5ccccc5s4)c3C2)nc1C(=O)O (stereo not shown) [Compound 124, 6-(8-(benzo[d]thiazol-2-ylcarbamoyl)-3,4-dihydroisoquinolin-2(1H)-yl)-3-(4-((7-(2-((3-(2,6-dioxopiperidin-3-yl)-1,7-dimethyl-1H-indazol-6-yl)amino)-2-oxoethyl)-7-azaspiro[3.5]nonan-2-yl)methoxy)-2-methylphenyl)picolinic acid]",< 10,B (30% ≤ Ymin < 50%)
Cn1nc(C2CCC(=O)NC2=O)c2ccc(NC(=O)CN3CCC(CCCOc4ccc(-c5ccc(N6CCc7cccc(C(=O)Nc8nc9ccccc9s8)c7C6)nc5C(=O)O)c(C(F)(F)F)c4)CC3)nc21 (stereo not shown) [Compound 146],10 to 100,B (30% ≤ Ymin < 50%)
"Cc1c(OCCC2CC3(CCN(CC(=O)Nc4ccc5c(C6CCC(=O)NC6=O)nn(C)c5c4)CC3)C2)cccc1-c1ccc(N2CCc3cccc(C(=O)Nc4nc5ccccc5s4)c3C2)nc1C(=O)O (stereo not shown) [Compound 114, 6-(8-(benzo[d]thiazol-2-ylcarbamoyl)-3,4-dihydroisoquinolin-2(1H)-yl)-3-(3-(2-(7-(2-((3-(2,6-dioxopiperidin-3-yl)-1-methyl-1H-indazol-6-yl)amino)-2-oxoethyl)-7-azaspiro[3.5]nonan-2-yl)ethoxy)-2-methylphenyl)picolinic acid]",10 to 100,B (30% ≤ Ymin < 50%)
"COc1c(NC(=O)CN2CCC3(CC2)CC(Oc2cccc(-c4ccc(N5CCc6cccc(C(=O)Nc7nc8ccccc8s7)c6C5)nc4C(=O)O)c2C(F)(F)F)C3)ccc2c(C3CCC(=O)NC3=O)nn(C)c12 (stereo not shown) [Compound 166, 6-(8-(benzo[d]thiazol-2-ylcarbamoyl)-3,4-dihydroisoquinolin-2(1H)-yl)-3-(3-((7-(2-((3-(2,6-dioxopiperidin-3-yl)-7-methoxy-1-methyl-1H-indazol-6-yl)amino)-2-oxoethyl)-7-azaspiro[3.5]nonan-2-yl)oxy)-2-(trifluoromethyl)phenyl)picolinic acid]",10 to 100,B (30% ≤ Ymin < 50%)
Cc1c(OC2CCC3(CC2)CCN(CC(=O)Nc2ccc4c(C5CCC(=O)NC5=O)nn(C)c4c2)CC3)cccc1-c1ccc(N2CCc3cccc(C(=O)Nc4nc5ccccc5s4)c3C2)nc1C(=O)O (stereo not shown) [Compound 119],< 10,B (30% ≤ Ymin < 50%)
"COc1c(NC(=O)CN2CCC(CCCOc3ccc(-c4ccc(N5CCc6cccc(C(=O)Nc7nc8ccccc8s7)c6C5)nc4C(=O)O)c(C)c3)CC2)ccc2c(C3CCC(=O)NC3=O)nn(C)c12 (stereo not shown) [Compound 105, 6-[8-(1,3-benzothiazol-2-ylcarbamoyl)-3,4-dihydro-1H-isoquinolin-2-yl]-3-[4-[3-[1-[2-[[3-(2,6-dioxo-3-piperidyl)-7-methoxy-1-methyl-indazol-6-yl]amino]-2-oxo-ethyl]-4-piperidyl]propoxy]-2-methyl-phenyl]pyridine-2-carboxylic acid]",10 to 100,A (Ymin < 30%)
"Cc1cc(OCCCC2CCN(CCCc3ccc4c(C5CCC(=O)NC5=O)nn(C)c4c3)CC2)ccc1-c1ccc(N2CCc3cccc(C(=O)Nc4nc5ccccc5s4)c3C2)nc1C(=O)O (stereo not shown) [Compound 151, 6-(8-(benzo[d]thiazol-2-ylcarbamoyl)-3,4-dihydroisoquinolin-2(1H)-yl)-3-(4-(3-(1-(3-(3-(2,6-dioxopiperidin-3-yl)-1-methyl-1H-indazol-6-yl)propyl)piperidin-4-yl)propoxy)-2-methylphenyl)picolinic acid]",< 10,A (Ymin < 30%)

# Second part, the compound after the results:
DC50 [nM],Ymin (24 h),SMILES
10 to 100,B (30% ≤ Ymin < 50%),"Cc1c(OCCC[C@@H]2CCN(CC(=O)Nc3ccc4c(C5CCC(=O)NC5=O)nn(C)c4c3)[C@H](C)C2)cccc1-c1ccc(N2CCc3ccnc(C(=O)Nc4nc5ccccc5s4)c3C2)nc1C(=O)O (stereo partly drawn) [Compound 216d, 6-(8-(benzo[d]thiazol-2-ylcarbamoyl)-3,4-dihydro-2,7-naphthyridin-2(1H)-yl)-3-(3-(3-((2R,4R)-1-(2-((3-(2,6-dioxopiperidin-3-yl)-1-methyl-1H-indazol-6-yl)amino)-2-oxoethyl)-2-methylpiperidin-4-yl)propoxy)-2-methylphenyl)picolinic acid]"
< 10,B (30% ≤ Ymin < 50%),"Cn1nc(C2CCC(=O)NC2=O)c2ccc(NC(=O)CN3CCC4(CC3)CC(Oc3cccc(-c5ccc(N6CCc7ccnc(C(=O)Nc8nc9ccccc9s8)c7C6)nc5C(=O)O)c3C(F)(F)F)C4)nc21 (stereo not shown) [Compound 202, 6-(8-(benzo[d]thiazol-2-ylcarbamoyl)-3,4-dihydro-2,7-naphthyridin-2(1H)-yl)-3-(3-((7-(2-((3-(2,6-dioxopiperidin-3-yl)-1-methyl-1H-pyrazolo[3,4-b]pyridin-6-yl)amino)-2-oxoethyl)-7-azaspiro[3.5]nonan-2-yl)oxy)-2-(trifluoromethyl)phenyl)picolinic acid]"
< 10,A (Ymin < 30%),"Cc1cc(OC[C@@H]2C[C@@H]2C2CCN(CC(=O)Nc3ccc4c(C5CCC(=O)NC5=O)nn(C)c4c3)CC2)ccc1-c1ccc(N2CCc3cccc(C(=O)Nc4nc5ccccc5s4)c3C2)nc1C(=O)O (single isomer, unassigned) [Compound 1003d]"
< 10,A (Ymin < 30%),"Cc1cc(OCCCC2CCN(CCNc3ccc4c(C5CCC(=O)NC5=O)nn(C)c4c3)CC2)ccc1-c1ccc(N2CCc3cccc(C(=O)Nc4nc5ccccc5s4)c3C2)nc1C(=O)O (stereo not shown) [Compound 179, 6-(8-(benzo[d]thiazol-2-ylcarbamoyl)-3,4-dihydroisoquinolin-2(1H)-yl)-3-(4-(3-(1-(2-((3-(2,6-dioxopiperidin-3-yl)-1-methyl-1H-indazol-6-yl)amino)ethyl)piperidin-4-yl)propoxy)-2-methylphenyl)picolinic acid]"
< 10,A (Ymin < 30%),Cn1nc(C2CCC(=O)NC2=O)c2ccc(NC(=O)CN3CCC(CCCOc4ccc(-c5ccc(N6CCc7cccc(C(=O)Nc8nc9ccccc9s8)c7C6)nc5C(=O)O)c(F)c4)CC3)cc21 (stereo not shown) [Compound 199]
< 10,B (30% ≤ Ymin < 50%),C[C@@H]1C[C@@H](CCCOc2ccc(-c3ccc(N4CCc5cccc(C(=O)Nc6nc7ccccc7s6)c5C4)nc3C(=O)O)c(C(F)(F)F)c2)CCN1CC(=O)Nc1ccc2c(C3CCC(=O)NC3=O)nn(C)c2c1 (stereo partly shown) [Compound 209d]
< 10,A (Ymin < 30%),Cc1cc(OCCC[C@@H]2CCN(CC(=O)Nc3ccc4c(C5CCC(=O)NC5=O)nn(C)c4c3)[C@@H](C)C2)ccc1-c1ccc(N2CCc3ccnc(C(=O)Nc4nc5ccccc5s4)c3C2)nc1C(=O)O (stereo partly shown) [Compound 219a]
10 to 100,C (50% ≤ Ymin < 70%),Cc1c(OCCCCC2CCN(Cc3nc4cc(C5CCC(=O)NC5=O)ccc4n3C)CC2)cccc1-c1ccc(N2CCc3cccc(C(=O)Nc4nc5ccccc5s4)c3C2)nc1C(=O)O (stereo not shown) [Compound 2002]
< 10,B (30% ≤ Ymin < 50%),"Cc1c(OC2CC3(CCN(CC(=O)Nc4ccc5c(C6CCC(=O)NC6=O)nn(C)c5c4F)CC3)C2)cccc1-c1ccc(N2CCc3cccc(C(=O)Nc4nc5ccccc5s4)c3C2)nc1C(=O)O (stereo not shown) [Compound 190, 6-(8-(benzo[d]thiazol-2-ylcarbamoyl)-3,4-dihydroisoquinolin-2(1H)-yl)-3-(3-((7-(2-((3-(2,6-dioxopiperidin-3-yl)-7-fluoro-1-methyl-1H-indazol-6-yl)amino)-2-oxoethyl)-7-azaspiro[3.5]nonan-2-yl)oxy)-2-methylphenyl)picolinic acid]"
< 10,B (30% ≤ Ymin < 50%),Cc1cc(OC2CC3(CCN(CC(=O)Nc4ccc5c(C6CCC(=O)NC6=O)nn(C)c5n4)CC3)C2)ccc1-c1ccc(N2CCc3cccc(C(=O)Nc4nc5ccccc5s4)c3C2)nc1C(=O)O (stereo not shown) [Compound 195]
